Values quoted from earlier work as cited in patent US10865157B2, “Methods and compositions for increasing the yield of, and beneficial chemical composition of, certain plants” (B.K. Consultants, Inc., priority 2014, dated 2020).

Details: similarly sized particles

Structure (SMILES): CC(=O)Oc1ccccc1C(=O)O [non-crystalline aspirin, aspirin]
- solubility in water relative to the crystal form: 2 to 8 times
